Laboratory results taken from paper PMC8879200, “Design, Synthesis, and Biological Evaluation of 4,4’-Difluorobenzhydrol Carbamates as Selective M1 Antagonists” (Pharmaceuticals, 2022).
Where two headings read alike, the source gives them in different places.

Assays:
[1] = target: T1, hM1 (Homo sapiens, UniProt P11229); assay: Competitive [3H]NMS radioligand binding, CHO-hM1 cell membranes; settings: inhibition of [3H]NMS binding, CHO-hM1 membranes; read-out: Affinity: Ki ± SD, hM1
T1 construct: host or cells: CHO-K1, stably transfected
T1 sequence (P11229 1-460): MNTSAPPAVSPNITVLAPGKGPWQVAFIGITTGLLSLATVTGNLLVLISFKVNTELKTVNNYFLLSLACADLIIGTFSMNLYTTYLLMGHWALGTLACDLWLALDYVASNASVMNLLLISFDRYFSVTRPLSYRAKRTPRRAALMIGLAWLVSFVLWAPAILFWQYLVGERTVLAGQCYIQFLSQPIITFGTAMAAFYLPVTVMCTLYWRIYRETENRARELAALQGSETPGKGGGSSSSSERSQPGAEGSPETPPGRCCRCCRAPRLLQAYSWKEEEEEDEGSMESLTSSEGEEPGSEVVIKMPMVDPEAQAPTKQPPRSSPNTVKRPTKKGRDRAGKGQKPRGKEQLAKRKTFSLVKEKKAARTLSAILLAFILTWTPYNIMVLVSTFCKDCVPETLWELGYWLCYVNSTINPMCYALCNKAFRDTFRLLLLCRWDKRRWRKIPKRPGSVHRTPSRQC
Method: (§1) We first assessed the carbamates’ affinities for human muscarinic acetylcholine receptors subtypes hM1–5 by means of a competitive radioligand binding assay displacing [N-methyl-^3H]scopolamine methyl chloride ([^3H]NMS) in cell membranes expressing the individual receptors.
(§2) Cell membranes bearing hM1-hM5 receptors were prepared as described previously. Briefly, stably transfected CHO-K1 cells were grown to at least 80% confluency in T175 flasks, washed with ice-cold DPBS, and scraped into a mixture of ice-cold of 2 mL 10 mM Tris-HCl, 1 mM EDTA-buffer, pH 7.4 and 200 µL protease inhibitor. A cell homogenate was prepared by passing the cell suspension through a G29 needle. The cell homogenates corresponding to two T175 flasks were combined and subsequently centrifuged (10 min, 1000 × g, 4 °C). Ultracentrifugation of the supernatant (1 h, 100,000 × g, 4 °C) yielded a membrane pellet, which was suspended in 250 µL 50 mM Tris-HCl buffer, pH 7.4 and stored at −80 °C.
(§3) Maximum binding was measured by using 5 µL DMSO, and nonspecific binding was measured by using 5 µL of 1 µM scopolamine in DMSO. […] The membrane-bound radioactivity was recovered by filtration through Whatman™ GF/B glass fibre filters pre-soaked in aqueous 0.1% PEI using an M-36 tygon tubed cell harvester (Brandel®, Gaithersburg, MD, USA). Membranes were washed 3 times with ice-cold washing buffer (50 mM Tris, pH 7.4) before being dried, transferred to 2 mL scintillation cocktail (UltimaGold™, high flashpoint LSC cocktail, PerkinElmer, Waltham, MA, USA) and counted in a β -counter (Hidex TDCR Liquid Scintillation Counter in CPM mode). IC50 values were calculated by a variable slope logistic regression using at least five distinct concentrations of test compounds, pipetted in triplicates.

[2] = target: T2, hM2 (Homo sapiens, UniProt P08172); assay: Competitive [3H]NMS radioligand binding, CHO-hM2 cell membranes; settings: for Ki: read-out: Affinity: Ki ± SD, hM2
T2 construct: host or cells: CHO-K1, stably transfected
T2 sequence (P08172 1-466): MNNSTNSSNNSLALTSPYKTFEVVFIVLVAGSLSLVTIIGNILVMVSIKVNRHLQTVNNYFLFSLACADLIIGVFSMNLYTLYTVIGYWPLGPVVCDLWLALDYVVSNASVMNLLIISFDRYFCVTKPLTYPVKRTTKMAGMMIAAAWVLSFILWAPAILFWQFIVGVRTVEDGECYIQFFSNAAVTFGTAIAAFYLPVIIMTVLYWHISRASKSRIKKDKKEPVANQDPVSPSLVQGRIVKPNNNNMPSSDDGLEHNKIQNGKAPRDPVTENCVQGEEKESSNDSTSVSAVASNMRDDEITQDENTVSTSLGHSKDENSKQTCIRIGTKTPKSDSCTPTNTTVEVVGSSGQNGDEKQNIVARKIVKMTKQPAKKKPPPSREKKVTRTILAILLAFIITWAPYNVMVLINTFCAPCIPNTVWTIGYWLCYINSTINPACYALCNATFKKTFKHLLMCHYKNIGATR
Method: as §1, §2, §3

[3] = target: T3, hM3 (Homo sapiens, UniProt P20309); assay: Competitive [3H]NMS radioligand binding, CHO-hM3 cell membranes; settings: for Ki: read-out: Affinity: Ki ± SD, hM3
T3 construct: host or cells: CHO-K1, stably transfected
Method: as §1, §2, §3

[4] = target: T4, hM4 (Homo sapiens, UniProt P08173); assay: Competitive [3H]NMS radioligand binding, CHO-hM4 cell membranes; settings: for Ki: inhibition of [3H]NMS binding, CHO-hM4 membranes, read-out: Affinity: Ki ± SD, hM4
T4 construct: host or cells: CHO-K1, stably transfected
T4 sequence (P08173 1-479): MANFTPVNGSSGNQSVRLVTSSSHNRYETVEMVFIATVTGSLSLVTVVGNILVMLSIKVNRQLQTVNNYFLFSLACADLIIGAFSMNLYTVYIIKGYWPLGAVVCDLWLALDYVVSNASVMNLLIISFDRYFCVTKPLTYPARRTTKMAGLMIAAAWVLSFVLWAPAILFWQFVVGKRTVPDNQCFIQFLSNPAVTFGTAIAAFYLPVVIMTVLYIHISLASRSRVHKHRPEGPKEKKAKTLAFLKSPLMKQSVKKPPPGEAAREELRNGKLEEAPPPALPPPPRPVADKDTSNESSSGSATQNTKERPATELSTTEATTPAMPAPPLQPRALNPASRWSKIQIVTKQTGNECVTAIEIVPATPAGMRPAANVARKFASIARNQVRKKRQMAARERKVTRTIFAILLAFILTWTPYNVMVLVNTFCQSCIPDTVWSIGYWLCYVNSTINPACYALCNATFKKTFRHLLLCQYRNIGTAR
Method: as §1, §2, §3

[5] = target: T5, hM5 (Homo sapiens, UniProt P08912); assay: Competitive [3H]NMS radioligand binding, CHO-hM5 cell membranes; settings: for Ki: inhibition of [3H]NMS binding, CHO-hM5 membranes, read-out: Affinity: Ki ± SD, hM5
T5 construct: host or cells: CHO-K1, stably transfected
T5 sequence (P08912 1-532): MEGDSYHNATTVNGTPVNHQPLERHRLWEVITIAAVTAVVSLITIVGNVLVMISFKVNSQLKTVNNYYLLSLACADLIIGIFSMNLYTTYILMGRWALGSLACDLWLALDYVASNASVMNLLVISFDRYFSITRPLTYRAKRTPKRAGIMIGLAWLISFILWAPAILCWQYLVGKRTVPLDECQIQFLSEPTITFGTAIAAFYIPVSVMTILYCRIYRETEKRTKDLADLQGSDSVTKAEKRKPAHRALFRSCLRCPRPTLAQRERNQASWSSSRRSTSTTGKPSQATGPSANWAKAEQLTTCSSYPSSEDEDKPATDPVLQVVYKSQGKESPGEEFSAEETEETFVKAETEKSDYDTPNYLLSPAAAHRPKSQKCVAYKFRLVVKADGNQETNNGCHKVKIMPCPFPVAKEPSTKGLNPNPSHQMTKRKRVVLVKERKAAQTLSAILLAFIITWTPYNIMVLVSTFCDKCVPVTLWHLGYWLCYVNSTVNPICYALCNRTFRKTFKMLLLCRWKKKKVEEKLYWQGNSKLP
Method: as §1, §2, §3

[6] = physchem; settings: pH 7.4
Method: (§4) Briefly, a mixture of toluene (≥98%, Sigma-Aldrich, St. Louis, MO, USA) and triphenylene (≥99.9%, Carl Roth, Karlsruhe, Germany) was used as internal standard. Each sample was dissolved in the internal standard mixture. Using gradient elution, the injection volume was set to 7 µL, the flow rate was 1.5 mL/min, and the mobile phase consisted of a mixture of methanol and 0.01 M sodium phosphate buffer pH 7.4. The HPLC-logD values were derived from the measured retention times following the previously published equation [27, 30].

[7] = High throughput HPLC-logD (lipophilicity); settings: pH 7.4
Method: as §4

T3 sequence (P20309 whole entry): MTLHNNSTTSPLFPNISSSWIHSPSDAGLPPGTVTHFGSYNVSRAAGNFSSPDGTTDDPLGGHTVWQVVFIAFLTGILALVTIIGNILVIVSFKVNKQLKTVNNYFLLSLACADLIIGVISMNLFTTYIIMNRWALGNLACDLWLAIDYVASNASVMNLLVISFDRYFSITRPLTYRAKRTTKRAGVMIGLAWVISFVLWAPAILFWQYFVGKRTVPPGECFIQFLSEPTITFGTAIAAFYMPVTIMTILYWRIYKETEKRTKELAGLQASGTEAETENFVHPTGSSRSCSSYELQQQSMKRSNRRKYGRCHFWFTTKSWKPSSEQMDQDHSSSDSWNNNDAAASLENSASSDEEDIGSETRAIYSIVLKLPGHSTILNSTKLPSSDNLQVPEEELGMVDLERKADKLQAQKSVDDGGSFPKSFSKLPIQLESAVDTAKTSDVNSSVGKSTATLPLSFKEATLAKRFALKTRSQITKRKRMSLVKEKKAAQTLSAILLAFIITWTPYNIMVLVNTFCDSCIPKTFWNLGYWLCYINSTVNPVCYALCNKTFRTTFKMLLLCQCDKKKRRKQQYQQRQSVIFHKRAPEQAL

Row | SMILES | Ki [1] [nM] | Ki ([2]; inhibition of [3H]NMS binding, CHO-hM2 membranes, >1000 values from two independent experiments) [nM] | Ki ([3]; inhibition of [3H]NMS binding, CHO-hM3 membranes, >1000 values from two independent experiments) [nM] | Ki [4] [nM] | Ki [5] [nM] | chromatographic logD [6] | x-Fold selectivity for hM1 vs. hM2 ([2]; ratio of Ki values hM2/hM1) [fold] | Ki [2] [nM] | x-Fold selectivity for hM1 vs. hM3 ([3]; ratio of Ki values hM3/hM1) [fold] | Ki [3] [nM] | x-Fold selectivity for hM1 vs. hM4 ([4]; ratio of Ki values hM4/hM1) [fold] | x-Fold selectivity for hM1 vs. hM5 ([5]; ratio of Ki values hM5/hM1) [fold] | melting point [°C] | chromatographic logD [7]
1 | CN1C2CCCC1CC(NC(=O)OC(c1ccc(F)cc1)c1ccc(F)cc1)C2 [Compound 8, Bis(4-fluorophenyl)methyl ((1R,3s,5S)-9-methyl-9-azabicyclo[3.3.1]nonan-3-yl)carbamate] | 475 ± 88.5 | 624 ± 104 | > 1000 | 563 ± 73.4 | 521 ± 173 | 3.21 ± 0.03 | – | – | – | – | – | – | – | –
2 | CN1CCC(NC(=O)OC(c2ccc(F)cc2)c2ccc(F)cc2)C1 (centres unmarked) [Compound 9, Bis(4-fluorophenyl)methyl (1-methylpyrrolidin-3-yl)carbamate] | 67.8 ± 5.4 | – | – | 144 ± 37.3 | 64.5 ± 22.8 | – | 10.6 | 722 ± 101 | 2.7 | 181 ± 68.1 | 2.1 | 1.0 | 84 to 86 | 2.8 ± 0.1
